Experiments:
[1] = target: Ribosomal protein S6 kinase beta-1 (Homo sapiens, UniProt P23443, T412E); assay: P70S6K Enzyme Assay: P70S6K inhibitor compounds are diluted and plated in 96 well plates. A reaction mixture including the following components is then added to the compound plate to initiate the enzyme reaction; P70S6K (3 nM, T412E mutant, Millipore) is mixed with 24 uM ATP in an assay buffer containing 100 mM Hepes (pH 7.5), 5 mM MgCl2, 1 mM DTT, 0.015% Brij and 1 uM of the substrate peptide FITC-AHA-[…]-OH (derived from the S6 ribosomal protein sequence, FITC=fluorescein isothiocyanate, AHA=6-aminohexanoic acid). The reaction is incubated for 90 min at 25° C., before the addition of 10 mM EDTA to stop the reaction. The proportion of substrate and product (phosphorylated) peptide is analysed on a Caliper Life Sciences Lab Chip 3000, using a pressure of -1.4 psi, and upstream and downstream voltages of -3000 and -700 respectively. Product peaks are resolved before substrate peaks on the resulting chromatograms.
Ribosomal protein S6 kinase beta-1, sequence (P23443 whole entry T412E): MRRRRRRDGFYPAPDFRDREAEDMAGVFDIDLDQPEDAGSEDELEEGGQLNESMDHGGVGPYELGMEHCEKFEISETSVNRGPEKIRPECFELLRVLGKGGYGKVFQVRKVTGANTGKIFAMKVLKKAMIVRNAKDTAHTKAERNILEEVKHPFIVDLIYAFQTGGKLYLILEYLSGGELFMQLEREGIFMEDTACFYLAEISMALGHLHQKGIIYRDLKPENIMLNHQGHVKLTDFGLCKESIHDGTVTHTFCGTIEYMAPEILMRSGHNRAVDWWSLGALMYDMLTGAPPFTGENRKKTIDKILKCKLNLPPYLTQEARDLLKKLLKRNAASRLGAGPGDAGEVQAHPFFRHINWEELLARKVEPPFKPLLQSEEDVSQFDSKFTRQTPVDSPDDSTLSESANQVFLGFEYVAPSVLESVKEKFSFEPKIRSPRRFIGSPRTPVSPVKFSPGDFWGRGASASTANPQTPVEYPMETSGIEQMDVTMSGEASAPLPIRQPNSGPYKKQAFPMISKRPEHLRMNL

[2] = target: RAC-alpha serine/threonine-protein kinase (Homo sapiens, UniProt P31749); assay: AKT Enzyme Assay: A TTP Mosquito liquid handling instrument is used to place 125 nl of the appropriate concentration of inhibitor in 100% DMSO (for a dose response curve calculation) into each well of a 384-well plate. To this reaction components are added to a final volume of 12.5 µl: 0.1 ng/µl His-AKT (Full Length), (Invitrogen, Part # P2999, Lot #641228C). 160 uM ATP (Fluka, 02055) 1 mM DTT (Sigma, D0632) 1 mM MgCl2 (Sigma, M1028) 1 µM substrate peptide (sequence FITC-AHA-[…]-NH2), synthesized by Tufts Peptide Synthesis service. 100 mM HEPES pH 7.5 (Calbiochem, 391338)0.015% Brij-35 (Sigma, B4184)The reaction is incubated for 90 min at 25 C, and then stopped by the addition of 70 µl of Stop buffer (100 mM HEPES pH 7.5, 0.015% Brij-35, 10 mM EDTA (Sigma, E7889)).The plate is read on a Caliper LC 3000 in an Off-Chip mobility shift assay format, using the following parameters for a 12-sipper chip: screening pressure -2.3 psi, upstream voltage -500, and downstream voltage -3000.
RAC-alpha serine/threonine-protein kinase, sequence (P31749 whole entry): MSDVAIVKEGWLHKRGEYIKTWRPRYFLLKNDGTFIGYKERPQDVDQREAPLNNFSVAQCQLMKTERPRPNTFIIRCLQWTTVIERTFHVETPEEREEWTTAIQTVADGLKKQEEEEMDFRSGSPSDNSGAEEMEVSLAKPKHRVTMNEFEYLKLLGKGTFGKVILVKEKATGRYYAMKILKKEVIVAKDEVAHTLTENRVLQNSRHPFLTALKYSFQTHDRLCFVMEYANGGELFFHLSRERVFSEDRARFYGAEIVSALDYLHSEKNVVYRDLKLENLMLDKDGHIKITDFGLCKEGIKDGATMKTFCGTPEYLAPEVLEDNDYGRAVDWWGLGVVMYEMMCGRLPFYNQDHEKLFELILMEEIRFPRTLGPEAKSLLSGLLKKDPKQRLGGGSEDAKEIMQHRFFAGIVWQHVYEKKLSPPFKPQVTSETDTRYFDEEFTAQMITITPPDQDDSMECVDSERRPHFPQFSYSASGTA

## CCc1c(N)ncnc1N1CCC(c2nc(-c3cccc(Cl)n3)cn2CCN2CCC2)CC1
[1]
  IC50: 58 nM
[2]
  IC50: 780 nM
